Data on 23 compounds can be found in patent US8859549B2, “Potassium channel modulators” (AbbVie, Inc., priority 2011, dated 2014).

For orientation: EC50 means the midpoint of the concentration-response curve.

The target of one test is T1, KCNQ 2/3 channels (Homo sapiens, UniProt O43525+O43526).
T1 construct: expressed in transfected cells; host or cells: HEK293
As to the kind of experiment: KCNQ 2/3 channel activation, thallium flux FLIPR assay (BTC-AM dye). In kind it is cell-based. To be noted: for Emax: HEK293, maximum response relative to the response of 10 μM retigabine (set at 100%), read-out: % MAX; for EC50: HEK293 cells stably expressing human KCNQ2 and KCNQ3 subunits, thallium-induced fluorescence, 4 min compound incubation. An outline of the steps:
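HEK293 cells stably expressing human KCNQ2/KCNQ3 were loaded with BTC-AM (3 μg/mL, 2 h, RT) and preincubated with compound for 4 min in pH 7.3 gluconate buffer containing 0.1 mM ouabain. Flux was triggered by 6 mM TlNO3/10 mM K2SO4 and read for 3 min; EC50 came from summed responses over basal, with maximum relative to 10 μM retigabine (100%).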

A further test deals with Sprague-Dawley rats. Description: Spinal Nerve Ligation (SNL) model of neuropathic pain, tactile allodynia. The class given is in vivo, rat. To be noted: about 30 mg/kg i.p., 30 minutes or more before testing. The source says: Adult male Sprague-Dawley rats (250-300 g body weight, Charles River Laboratories, Portage, Mich.) were used. Animal handling and experimental protocols were approved by the Institutional Animal Care and Use Committee (IACUC) at Abbott Laboratories. For all surgical procedures, animals were maintained under isoflurane anesthesia (4-5% to induce, 1-3% to maintain), and the incision sites were sterilized using a 10% povidone-iodine solution prior to and after surgeries.
Tactile (mechanical) allodynia was measured using calibrated von Frey filaments (Stoelting, Wood Dale, Ill.) as described in Chaplan, S. R., F. W. Bach, J. M. Pogrel, J. M. Chung and T. L. Yaksh, 1994, Quantitative assessment of tactile allodynia in the rat paw, J. Neurosci. Methods, 53, 55. Rats were placed into inverted individual plastic containers (20×12.5×20 cm) on top of a suspended wire mesh grid, and acclimated to the test chambers for 20 minutes. The von Frey filaments were presented perpendicularly to the plantar surface of the selected hind paw, and then held in this position for approximately 8 sec with enough force to cause a slight bend in the filament. Positive responses included an abrupt withdrawal of the hind paw from the stimulus, or flinching behavior immediately following removal of the stimulus. A 50% withdrawal threshold was determined using an up-down procedure (Dixon, W. J., 1980, Efficient analysis of experimental observations, Ann. Rev. Pharmacol. Toxicol., 20, 441). […] Tactile allodynia thresholds were also assessed in several control groups, including naive, sham-operated, and saline infused animals as well as in the contralateral paws of nerve-injured rats. To evaluate the anti-nociceptive effects, animals were administered vehicle or test compound and tactile allodynia was assessed 30 minutes after i.p. administration.
A model of spinal nerve ligation-induced (SNL model) neuropathic pain as originally described by Kim and Chung (Kim, S. H. and J. M. Chung, 1992, Pain 50, 355) was used to test a compound of the present application The left L5 and L6 spinal nerves of the rat were isolated adjacent to the vertebral column and tightly ligated with a 5-0 silk suture distal to the DRG, and care taken to avoid injury of the L4 spinal nerve. The same procedure was performed on Sham rats, but without nerve ligation. All animals were allowed to recover for at least one week and not more than three weeks prior to assessment of tactile allodynia.
Compounds were injected (i.p) 30 minutes or more before testing.

Structures are written as SMILES.

On to `CC(C)(C)OC(=O)NCc1nn(NC(=O)Cc2ccc(Cl)cc2)c(=O)c2ccccc12` [Example 41, tert-butyl[(3-{[(4-chlorophenyl)acetyl]amino}-4-oxo-3,4-dihydrophthalazin-1-yl)methyl]carbamate], for which the Emax on KCNQ 2/3 channels (HEK293 KCNQ2/KCNQ3 cells) came out at 90.3%. At KCNQ 2/3 channels, this compound had an EC50 of 0.975 µM. In addition, the “change in paw withdrawal latency versus vehicle” value (from here on “change”) in the test on Sprague-Dawley rats is “statistically significant change”.

As for `O=C(Cc1cc(F)cc(F)c1)Nn1nc(S(=O)(=O)c2ccccc2)c2ccccc2c1=O` [Example 68, 2-(3,5-difluorophenyl)-N-[1-oxo-4-(phenylsulfonyl)phthalazin-2(1H)-yl]acetamide], at KCNQ 2/3 channels (HEK293 KCNQ2/KCNQ3 cells), the Emax amounted to 79.9%. The EC50 on KCNQ 2/3 channels came out at 0.0699 µM. Besides, the “change” value in the test on Sprague-Dawley rats was “statistically significant change”.

In the case of `O=C(CC1CC2CCC1C2)Nn1nc(-c2ccc(C(F)(F)F)nc2)c2ccccc2c1=O` (racemic) [Example 43, (±)-2-[(exo)-bicyclo[2.2.1]hept-2-yl]-N-{1-oxo-4-[6-(trifluoromethyl)pyridin-3-yl]phthalazin-2(1H)-yl}acetamide], the Emax on KCNQ 2/3 channels (HEK293 KCNQ2/KCNQ3 cells) amounted to 149%. Besides, at KCNQ 2/3 channels, a half-maximal effect (EC50) was put at 0.143 µM. Moreover, the “change” value in the test on Sprague-Dawley rats is “statistically significant change”.

On to `O=C(Cc1ccc(Cl)cc1)Nn1nc(S(=O)(=O)c2ccccc2)c2ccccc2c1=O` [Example 69, 2-(4-chlorophenyl)-N-[1-oxo-4-(phenylsulfonyl)phthalazin-2(1H)-yl]acetamide], for which the Emax on KCNQ 2/3 channels (HEK293 KCNQ2/KCNQ3 cells) is 118%. Moreover, the EC50 on KCNQ 2/3 channels was determined as 0.0409 µM. The “change” value in the test with Sprague-Dawley rats is “statistically significant change”.

As for `O=C(CC1CC2CCC1C2)Nn1nc(-c2ccnc(C(F)(F)F)c2)c2ccccc2c1=O` (racemic) [Example 76, (±)-2-[(exo)-bicyclo[2.2.1]hept-2-yl]-N-{1-oxo-4-[2-(trifluoromethyl)pyridin-4-yl]phthalazin-2(1H)-yl}acetamide], the Emax on KCNQ 2/3 channels (HEK293 KCNQ2/KCNQ3 cells) was found to be 127%. Besides, at KCNQ 2/3 channels, the EC50 was determined as 0.126 µM. In addition, the “change” value in the test with Sprague-Dawley rats is reported as “statistically significant change”.

Regarding `C[C@@H]1CN(c2nn(NC(=O)Cc3ccc(Cl)cc3)c(=O)c3ccccc23)C[C@H](C)O1` [Example 81, 2-(4-chlorophenyl)-N-{4-[cis-2,6-dimethylmorpholin-4-yl]-1-oxophthalazin-2(1H)-yl}acetamide], the Emax on KCNQ 2/3 channels (HEK293 KCNQ2/KCNQ3 cells) amounted to 85.1%. Besides, on KCNQ 2/3 channels, the EC50 came out at 0.663 µM. Moreover, in the test on Sprague-Dawley rats, the “change” value is reported as “statistically significant change”.

On to `C[C@@H]1CN(c2nn(NC(=O)CC(C)(C)c3ccccc3)c(=O)c3ccccc23)C[C@H](C)O1` [Example 89, N-{4-[(cis)-2,6-dimethylmorpholin-4-yl]-1-oxophthalazin-2(1H)-yl}-3-methyl-3-phenylbutanamide], for which the Emax on KCNQ 2/3 channels (HEK293 KCNQ2/KCNQ3 cells) turned out to be 183%. Further, at KCNQ 2/3 channels, the EC50 worked out at 0.35 µM.

With `CC(C)(CC(=O)Nn1nc(S(=O)(=O)c2ccccc2)c2ccccc2c1=O)c1ccccc1` [Example 194, 3-methyl-N-[1-oxo-4-(phenylsulfonyl)phthalazin-2(1H)-yl]-3-phenylbutanamide], the Emax at KCNQ 2/3 channels (HEK293 KCNQ2/KCNQ3 cells) was determined as 63.4%. The compound also showed a half-maximal effective concentration (EC50) on KCNQ 2/3 channels of 1.78 µM.

Consider `CC(C)(C)OC(=O)NCc1nn(NC(=O)CC2CCCCC2)c(=O)c2ccccc12` [Example 126, tert-butyl({3-[(cyclohexylacetyl)amino]-4-oxo-3,4-dihydrophthalazin-1-yl}methyl)carbamate], for which the Emax at KCNQ 2/3 channels (HEK293 KCNQ2/KCNQ3 cells) was 25.6%.

Take `CC(C)(C)CNC(=O)Cc1nn(NC(=O)Cc2ccc(Cl)cc2)c(=O)c2ccccc12` [Example 123, 2-(4-chlorophenyl)-N-[4-{2-[(2,2-dimethylpropyl)amino]-2-oxoethyl}-1-oxophthalazin-2(1H)-yl]acetamide]: the Emax on KCNQ 2/3 channels (HEK293 KCNQ2/KCNQ3 cells) was found to be 13%.

`O=C(CC1CC2CCC1C2)Nn1nc(-c2ccc(Cl)nc2)c2ccccc2c1=O` (racemic) [Example 4, (±)-2-[(exo)-bicyclo[2.2.1]hept-2-yl]-N-[4-(6-chloropyridin-3-yl)-1-oxophthalazin-2(1H)-yl]acetamide]: the Emax on KCNQ 2/3 channels (HEK293 KCNQ2/KCNQ3 cells) amounted to 133%. Also, the concentration giving a half-maximal response (EC50) on KCNQ 2/3 channels turned out to be 0.0606 µM.

`O=C(CC1CC2CCC1C2)Nn1nc(NCc2ccccc2)c2ccccc2c1=O` (racemic) [Example 34, (±)-N-[4-(benzylamino)-1-oxophthalazin-2(1H)-yl]-2-[(exo)-bicyclo[2.2.1]hept-2-yl]acetamide]: the Emax on KCNQ 2/3 channels (HEK293 KCNQ2/KCNQ3 cells) is 161%. In addition, the response at KCNQ 2/3 channels was half-maximal at 0.142 µM (EC50).

On to `CC(C)(C)OC(=O)NCc1nn(NC(=O)Cc2ccc(F)cc2)c(=O)c2ccccc12` [Example 125, tert-butyl[(3-{[(4-fluorophenyl)acetyl]amino}-4-oxo-3,4-dihydrophthalazin-1-yl)methyl]carbamate], for which, at KCNQ 2/3 channels (HEK293 KCNQ2/KCNQ3 cells), the Emax came out at 93.1%. This compound also registered an EC50 on KCNQ 2/3 channels of 9.9 µM.

As for `O=C(CC1CC2CCC1C2)Nn1nc(N2CCSCC2)c2ccccc2c1=O` (racemic) [Example 93, (±)-2-[(exo)-bicyclo[2.2.1]hept-2-yl]-N-[1-oxo-4-(thiomorpholin-4-yl)phthalazin-2(1H)-yl]acetamide], at KCNQ 2/3 channels (HEK293 KCNQ2/KCNQ3 cells), the Emax was 229%. Besides, a half-maximal response at KCNQ 2/3 channels (EC50) required 0.0782 µM.

In turn, `CC1CN(c2nn(NC(=O)CC3CC4CCC3C4)c(=O)c3ccccc23)CC(C)O1` (racemic) [Example 90, (±)-2-[(exo)-bicyclo[2.2.1]hept-2-yl]-N-{4-[(cis)-2,6-dimethylmorpholin-4-yl]-1-oxophthalazin-2(1H)-yl}acetamide] returned an EC50 at KCNQ 2/3 channels of 0.141 µM. Besides, at KCNQ 2/3 channels (maximum response relative to the response of 10 μM retigabine (set at 100%), HEK293 KCNQ2/KCNQ3 cells), the “% MAX” value came out at 196%.

With `O=C(Cc1ccc(Cl)c(Cl)c1)Nn1nc(N2CCOCC2)c2ccccc2c1=O` [Example 177, 2-(3,4-dichlorophenyl)-N-[4-(morpholin-4-yl)-1-oxophthalazin-2(1H)-yl]acetamide], the Emax at KCNQ 2/3 channels (HEK293 KCNQ2/KCNQ3 cells) worked out at 131%. The same compound came in with a concentration for a half-maximal effect (EC50) on KCNQ 2/3 channels of 0.628 µM.

In the case of `O=C(Cc1ccc(OC(F)(F)F)cc1)Nn1nc(N2CCOCC2)c2ccccc2c1=O` [Example 132, N-[4-(morpholin-4-yl)-1-oxophthalazin-2(1H)-yl]-2-[4-(trifluoromethoxy)phenyl]acetamide], the Emax on KCNQ 2/3 channels (HEK293 KCNQ2/KCNQ3 cells) is 105%. At KCNQ 2/3 channels, this compound had an EC50 of 1.69 µM.

Take `O=C(Cc1cc(F)cc(F)c1)Nn1nc(N2CCCC2)c2ccccc2c1=O` [Example 20, 2-(3,5-difluorophenyl)-N-[1-oxo-4-(pyrrolidin-1-yl)phthalazin-2(1H)-yl]acetamide]: the Emax at KCNQ 2/3 channels (HEK293 KCNQ2/KCNQ3 cells) worked out at 145%. The compound further yielded an EC50 at KCNQ 2/3 channels of 0.214 µM.

For the compound `O=C(CC1CC2CCC1C2)Nn1nc(Cc2ccncc2)c2ccccc2c1=O` (racemic) [Example 97, (±)-2-[(exo)-bicyclo[2.2.1]hept-2-yl]-N-[1-oxo-4-(pyridin-4-ylmethyl)phthalazin-2(1H)-yl]acetamide], the Emax at KCNQ 2/3 channels (HEK293 KCNQ2/KCNQ3 cells) stood at 173%. At KCNQ 2/3 channels, this compound came in with an EC50 of 2.7 µM.

Turning to `CCOC(=O)NCc1nn(NC(=O)Cc2ccc(Cl)cc2)c(=O)c2ccccc12` [Example 85, ethyl[(3-{[(4-chlorophenyl)acetyl]amino}-4-oxo-3,4-dihydrophthalazin-1-yl)methyl]carbamate], the Emax on KCNQ 2/3 channels (HEK293 KCNQ2/KCNQ3 cells) was determined as 87.3%. On KCNQ 2/3 channels, this compound returned an EC50 of 5.35 µM.

With `O=C(Cc1cccc(Cl)c1)Nn1nc(N2CCOCC2)c2ccccc2c1=O` [Example 152, 2-(3-chlorophenyl)-N-[4-(morpholin-4-yl)-1-oxophthalazin-2(1H)-yl]acetamide], at KCNQ 2/3 channels (HEK293 KCNQ2/KCNQ3 cells), the Emax worked out at 80%. The compound also yielded an EC50 on KCNQ 2/3 channels of 5.51 µM.

`O=C(Cc1cc(F)cc(F)c1)Nn1nc(SCc2ccccc2)c2ccccc2c1=O` [Example 212, N-[4-(benzylsulfanyl)-1-oxophthalazin-2(1H)-yl]-2-(3,5-difluorophenyl)acetamide]: the Emax on KCNQ 2/3 channels (HEK293 KCNQ2/KCNQ3 cells) stood at 109%. Further, on KCNQ 2/3 channels, the EC50 came to 0.152 µM.

Take `O=C(Cc1ccc(Cl)cc1)Nn1nc(CNS(=O)(=O)C(F)(F)F)c2ccccc2c1=O` [Example 79, 2-(4-chlorophenyl)-N-[1-oxo-4-({[(trifluoromethyl)sulfonyl]amino}methyl)phthalazin-2(1H)-yl]acetamide]: the Emax on KCNQ 2/3 channels (HEK293 KCNQ2/KCNQ3 cells) was determined as 33.6%. Also, a half-maximal response at KCNQ 2/3 channels (EC50) required 9.08 µM.
